Test results reported in patent US20250186604A1, “ANTI-PSMA ANTIBODY CONJUGATES” (ADC THERAPEUTICS SA, priority 2023, published 2025).
Starred links: 1 amine or outer side, 2 acyl side, 3 side chain; linkers in the order of their positions; H or OH if unused. Non-standard residues stand in square brackets, D forms with d. Residues, ends and D or L forms follow the SMILES beside them. *: point of attachment. Exatecan = CC[C@@]1(O)C(=O)OCc2c1cc1n(c2=O)Cc2c-1nc1cc(F)c(C)c3c1c2[C@@H](N*)CC3; Propanoyl(3-maleimido) = O=C1C=CC(=O)N1CCC(=O)*; PABC = O=C(OCc1ccc(N[*:1])cc1)[*:2]

Key:
topo I/DNA complex = target: T1, topo I/DNA complex (Homo sapiens, UniProt P11387); details: versus SN38 (the active metabolite of irinotecan); cited from earlier work
T1 sequence (P11387 1-765): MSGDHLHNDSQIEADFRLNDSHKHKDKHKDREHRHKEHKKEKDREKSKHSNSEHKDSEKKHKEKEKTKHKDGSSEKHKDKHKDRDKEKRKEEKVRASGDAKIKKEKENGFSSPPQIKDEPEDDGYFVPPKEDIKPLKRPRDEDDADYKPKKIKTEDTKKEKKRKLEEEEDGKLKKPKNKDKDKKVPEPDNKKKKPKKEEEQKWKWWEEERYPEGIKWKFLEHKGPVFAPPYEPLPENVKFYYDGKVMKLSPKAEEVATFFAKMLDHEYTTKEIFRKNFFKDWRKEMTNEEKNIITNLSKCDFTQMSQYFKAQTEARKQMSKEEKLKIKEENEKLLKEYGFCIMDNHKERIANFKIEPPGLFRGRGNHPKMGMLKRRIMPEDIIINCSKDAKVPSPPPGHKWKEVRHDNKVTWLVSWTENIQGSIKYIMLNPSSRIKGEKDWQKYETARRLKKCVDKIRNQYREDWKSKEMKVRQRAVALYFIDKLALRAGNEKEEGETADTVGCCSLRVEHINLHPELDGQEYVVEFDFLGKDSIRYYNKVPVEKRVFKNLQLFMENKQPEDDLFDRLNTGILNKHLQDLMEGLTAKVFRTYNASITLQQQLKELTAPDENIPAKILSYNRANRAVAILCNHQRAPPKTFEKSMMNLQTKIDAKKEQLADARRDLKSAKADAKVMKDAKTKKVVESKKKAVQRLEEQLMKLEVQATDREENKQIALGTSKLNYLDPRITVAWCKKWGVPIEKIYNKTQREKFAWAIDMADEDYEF

a variety of cell lines = details: versus SN38; cited from earlier work
[1] = RP-HPLC retention time correlated with hydrophobicity; format: physicochemical; details: high Rt = hydrophobic, low Rt = hydrophilic
Method: • Column: Phenomenex Gemini NX 5 m, C18, 110Å, 150×4.6 mm • Instrument: Shimadzu LC-2030 • Mobile phase: A) water (0.05% TFA), B) acetonitrile (0.05% TFA) • Gradient: 20-70% B over 15 min, flow 1.0 mL/min
A correlation study was also carried out using Reverse-Phase HPLC (RP-HPLC). The two constructs were injected in RP-HPLC and retention times (Rt) correlated with hydrophobicity—i.e., high Rt was associated to hydrophobic constructs whereas low Rt to hydrophilic ones.

[2] = Aggregation during conjugation to a test antibody (% monomer by SEC); format: physicochemical; details: drug linker conjugated to a test antibody
Method: 2 mg of a test monoclonal antibody at 8.87 mg/ml was pH adjusted with 5% 0.5 M Tris, 0.025 M EDTA, pH 8.5 and reduced with 2.3 mol. eq. TCEP and then conjugated with 6mol. eq. drug linker. After buffer exchange into 30 mM Histidine, 175 mM Sucrose pH 6.0/PBS, the drug to antibody ratio (DAR) was by HIC/LC-MS and % Monomer by size exclusion chromatography (SEC). Percentage monomer values of 95% or greater are assessed as low aggregation.
Aggregation levels were assessed during the conjugation to a test antibody. Conjugation was performed as described above for ADC-1.
During conjugation, we are ideally targeting a monomer content or percentage monomer of 95% or above. Low percentage monomer values usually translate to a higher degree of aggregation. One could therefore agree that percentage monomer values of 95% or higher mean very low levels of aggregation or none, whereas values below this threshold often translate to higher levels of aggregation.

**Q.** Which “potency relative to SN38 at stabilizing the topo I/DNA complex” value (topo I/DNA complex) does the source give for CC[C@@]1(O)C(=O)OCc2c1cc1n(c2=O)Cc2c-1nc1cc(F)c(C)c3c1c2[C@@H](N)CC3 [Exatecan] here?
**A.** The value was “about 2.5 fold”.

**Q.** What about the “potency relative to SN38 as a cytotoxin” value (a variety of cell lines) of the same compound?
**A.** Its value is “about 2.5 fold”.

**Q.** Which results are given for CC[C@@]1(O)C(=O)OCc2c1cc1n(c2=O)Cc2c-1nc1cc(F)c(C)c3c1c2[C@@H](NC(=O)OCc1ccc(NC(=O)[C@H](C)NC(=O)[C@@H](NC(=O)CNC(=O)CNC(=O)CNC(=O)CNC(=O)CNC(=O)CCN2C(=O)C=CC2=O)C(C)C)cc1)CC3 [Mal-Gly5-VA-PABC-Exatecan] ({Propanoyl(3-maleimido)}-GGGGGVA[PABC]-Exatecan)?
**A.** Rt [1]: 9.76 min; Aggregation (% monomer) ([2]; SEC, 95% or greater = low aggregation): (98%); Aggregation ([2]; grade in words): None
